The numbers were not newly measured in US6916479B2, “Compositions containing an antifungal and a phospholipid” (Janssen Pharmaceutica N.V., priority 1997, dated 2005), which cites them from elsewhere.

The conditions of this data set: prior art medicated shampoo.

For the molecule `S=[Se]=S` [selenium sulfide], the “number of patients not responding to particular medicated shampoo” value is “up to 40%”. As to `CC(=O)N1CCN(c2ccc(OCC3COC(Cn4ccnc4)(c4ccc(Cl)cc4Cl)O3)cc2)CC1` (centres unmarked) [ketoconazole], the “number of patients not responding to particular medicated shampoo” value was “up to 30%”.
